Assay results reported in patent US11505575B2, “Cyclic polypeptides for PCSK9 inhibition” (Merck Sharp & Dohme LLC, priority 2018, dated 2022).
*1 amine or outer side, *2 acyl side, *3 side chain or, on linkers, in order; H or OH if unused. Where a SMILES comes first, the peptide text is derived from it. Bridges are numbered along the chain shown (N, C = ends). [ ]: non-standard residue; d: D form. X6 = C[C@@H](O)[C@H](CC(=O)[C@H](Cc1cnc[nH]1)N[*:1])C(=O)[*:2]; αMeNva(5-ylidene) = C[C@@](CCC=[*:3])(N[*:1])C(=O)[*:2]; Ala(4-isoquinolinyl) = N[C@@H](Cc1cncc2ccccc12)C(=O)O; Trp(βS-Me) = C[C@@H](c1c[nH]c2ccccc12)[C@H](N)C(=O)O; Phe(4-guanidino) = N=C(N)Nc1ccc(C[C@H](N)C(=O)O)cc1; X4 = O=C([C@H](Cc1cc2cc(F)ccc2[nH]1)N[*:1])[*:2]; X3 = N=C(N)NCc1ccc(C[C@H](N[*:1])C(=O)[*:2])cc1; Trp(7-aza) = N[C@@H](Cc1c[nH]c2ncccc12)C(=O)O; Phe(4-CH2NH2) = NCc1ccc(C[C@H](N)C(=O)O)cc1; X1 = C[C@@](CCCCC=[*:3])(N[*:1])C(=O)[*:2]; X2 = O=C(CCSCc1cccc(CSCCN[*:1])c1)[*:2]; 1Nal = N[C@@H](Cc1cccc2ccccc12)C(=O)O; mXylylene = c1cc(C[*:1])cc(C[*:2])c1; Aad = N[C@@H](CCCC(=O)O)C(=O)O; aThr = C[C@H](O)[C@H](N)C(=O)O; Agp = N=C(N)NC[C@H](N)C(=O)O; Chg = N[C@H](C(=O)O)C1CCCCC1; Tle = CC(C)(C)[C@H](N)C(=O)O; αMeK = C[C@](N)(CCCCN)C(=O)O; αMeV = CC(C)[C@](C)(N)C(=O)O; Nva = CCC[C@H](N)C(=O)O; Aib = CC(C)(N)C(=O)O; Mpa = O=C(O)CCS

Assays:
PCSK9 = target: T1, PCSK9 (Homo sapiens, UniProt Q8NBP7); assay: PCSK9 Alexa FRET Standard assay (displacement of AlexaFluor647-tagged cyclic peptide Reagent A); type: binding; conditions: 0.5 nM PCSK9, 20 nM AF cyclic peptide Reagent A
T1 construct: biotin (biotinylated)
Method: A solution containing 1 nM biotinylated PCSK9+2.5 nM Lance Streptavidin Europium (Strep-Eu) was made in 50 mM HEPES pH 7.4, 0.15 M NaCl, 5 mM CaCl2, 0.01% BSA, and 0.01% Surfactant P20. A separate solution containing 40 nM of the AlexaFluor tagged cyclic peptide was made in the same buffer system. An Echo was used to transfer 0.750 ul of compound to an assay plate followed by the addition of 15 ul of PCSK9+Stept-Eu and 15 ul of AF peptide. The final assay volume was 30.750 ul containing 0.5 nM PCSK9, 1.25 nM Strep-Eu, and 20 nM AF cyclic peptide. The reaction was incubated at room temperature for at least two hours prior to fluorescence measurements using an Envision Multilabel Reader. IC50 values were determined by fitting data to a sigmoidal dose-response curve using nonlinear regression. Ki was then calculated from the IC50 and the KD of AF cyclic peptide. Counts (B-counts) of the europium-labeled PCSK9 were followed to observe if compounds were […]. A fall off of the B-counts likely indicated a false positive of inhibition. Data from this procedure was reported as “A=‘numerical value’ (nanomolar)”

[1] = target: human PCSK9 / human LDLR EGFa domain interaction (Homo sapiens, UniProt Q8NBP7); assay: TR-FRET assay of inhibition of the PCSK9-LDLR protein-protein interaction; type: binding; conditions: 20 nM biotinylated human PCSK9 + 20 nM his-tagged human LDLR EGFa domain, 2 hours room temperature
Outline: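 Biotinylated human PCSK9 (20 nM) and His-tagged human LDLR EGFa domain (20 nM) incubated with Ulight-streptavidin and Eu-anti-His (5 nM each), 2 h at room temperature, in HEPES pH buffer with 5 mM CaCl2. TR-FRET read-out; IC50 from 4-parameter fit of dose-response.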

Sequence of human PCSK9 / human LDLR EGFa domain interaction (Q8NBP7 153-692): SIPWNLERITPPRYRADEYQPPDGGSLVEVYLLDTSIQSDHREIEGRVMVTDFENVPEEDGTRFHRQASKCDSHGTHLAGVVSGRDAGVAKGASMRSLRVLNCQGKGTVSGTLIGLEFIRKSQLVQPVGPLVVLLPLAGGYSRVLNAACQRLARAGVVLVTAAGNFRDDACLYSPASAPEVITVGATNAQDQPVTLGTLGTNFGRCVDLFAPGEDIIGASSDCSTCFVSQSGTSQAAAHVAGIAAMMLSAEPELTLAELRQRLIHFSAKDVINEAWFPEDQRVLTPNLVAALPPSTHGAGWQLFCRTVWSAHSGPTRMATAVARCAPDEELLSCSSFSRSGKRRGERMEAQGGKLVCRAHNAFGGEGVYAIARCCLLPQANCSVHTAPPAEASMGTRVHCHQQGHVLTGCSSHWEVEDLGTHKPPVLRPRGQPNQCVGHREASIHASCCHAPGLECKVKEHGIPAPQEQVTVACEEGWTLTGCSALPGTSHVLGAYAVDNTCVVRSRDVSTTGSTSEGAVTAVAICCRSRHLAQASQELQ
Sequence of human PCSK9 / human LDLR EGFa domain interaction (Q8NBP7 31-152 partner limits assumed): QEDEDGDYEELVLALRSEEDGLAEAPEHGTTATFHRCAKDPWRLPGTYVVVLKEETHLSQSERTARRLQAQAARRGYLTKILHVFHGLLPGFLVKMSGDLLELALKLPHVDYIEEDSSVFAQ
T1 sequence (Q8NBP7 153-692): as the sequence (Q8NBP7 153-692) above

CC(C)[C@]1(C)NC(=O)[C@H](Cc2ccc(O)cc2)NC(=O)[C@H](CCC(=O)O)NC(=O)C(C)(C)NC(=O)[C@H](Cc2c[nH]c3ncccc23)NC(=O)[C@H]([C@@H](C)O)NC(=O)[C@@H]2CCCN2C(=O)[C@H](Cc2ccc(O)cc2)NC(=O)[C@H](C(C)(C)C)NC(=O)CCSCc2cccc(c2)CSC[C@@H](C(N)=O)NC(=O)[C@H]([C@H](C)O)NC1=O [Compound 020] ([Mpa][Tle]YPT[Trp(7-aza)][Aib]EY[αMeV][aThr]C-NH2; linker 1-12 via mXylylene)
IC50 (PCSK9): 1000 to 12100 nM | IC50 [1]: 21000 to 50000 nM

CC(C)[C@@H]1NC(=O)CCSCc2cccc(c2)CSCCNC(=O)[C@H](C)NC(=O)[C@](C)(C(C)C)NC(=O)[C@H](Cc2ccccc2)NC(=O)[C@H](C)NC(=O)C(C)(C)NC(=O)[C@H](Cc2cccc3ccccc23)NC(=O)[C@H]([C@@H](C)O)NC(=O)[C@@H]2CCCN2C(=O)[C@H](Cc2ccccc2)NC1=O [Compound 021] (cyclo([1Nal][Aib]AF[αMeV]A[X2]VFPT))
IC50 (PCSK9): 1 to 100 nM | IC50 [1]: 100 to 1000 nM

CCC[C@@H]1NC(=O)[C@H](Cc2cccc3ccccc23)NC(=O)[C@H]([C@@H](C)O)NC(=O)[C@@H]2CCCN2C(=O)[C@H](Cc2ccccc2)NC(=O)[C@H](C(C)C)NC(=O)CCSCc2cccc(c2)CSCCNC(=O)[C@H](C)NC(=O)[C@](C)(C(C)C)NC(=O)[C@H](Cc2ccccc2)NC(=O)[C@H](C)NC1=O [Compound 022] (cyclo([1Nal][Nva]AF[αMeV]A[X2]VFPT))
IC50 (PCSK9): 1 to 100 nM | IC50 [1]: 100 to 1000 nM

CC(C)[C@]1(C)NC(=O)[C@H](Cc2ccc(O)cc2)NC(=O)[C@H](C)NC(=O)[C@](C)(CCCCN)NC(=O)[C@H](Cc2c[nH]c3ncccc23)NC(=O)[C@H]([C@@H](C)O)NC(=O)[C@@H]2CCCN2C(=O)[C@H](Cc2ccc(O)cc2)NC(=O)[C@H](C(C)(C)C)NC(=O)CCSCc2cccc(c2)CSC[C@@H](C(N)=O)NC(=O)[C@H]([C@@H](C)O)NC1=O [Compound 023] ([Mpa][Tle]YPT[Trp(7-aza)][αMeK]AY[αMeV]TC-NH2; linker 1-12 via mXylylene)
IC50 (PCSK9): 1 to 100 nM | IC50 [1]: 1 to 100 nM

CCC[C@@H]1NC(=O)[C@H](Cc2cncc3ccccc23)NC(=O)[C@H]([C@@H](C)O)CC(=O)[C@H](Cc2cnc[nH]2)NC(=O)[C@H](Cc2ccc(O)cc2)NC(=O)[C@H](C(C)(C)C)NC(=O)CCSCc2cccc(c2)CSC[C@@H](C(N)=O)NC(=O)[C@H]([C@@H](C)O)NC(=O)[C@H](CCC)NC(=O)[C@H](Cc2ccc(O)cc2)NC(=O)[C@H](CCC(=O)O)NC1=O [Compound 052] ([Mpa][Tle]Y[X6][Ala(4-isoquinolinyl)][Nva]EY[Nva]TC-NH2; linker 1-11 via mXylylene)
IC50 (PCSK9): 100 to 1000 nM | IC50 [1]: 100 to 1000 nM

CCC[C@@H]1NC(=O)[C@H](Cc2c[nH]c3ncccc23)NC(=O)[C@H]([C@@H](C)O)NC(=O)[C@H](Cc2cnc[nH]2)NC(=O)[C@H](Cc2ccc(O)cc2)NC(=O)[C@H](C(C)(C)C)NC(=O)CCSCc2cccc(c2)CSC[C@@H](C(N)=O)NC(=O)[C@H]([C@@H](C)O)NC(=O)[C@H](Cc2ccc(O)cc2)NC(=O)[C@H](Cc2ccc(O)cc2)NC(=O)[C@H](CCC(=O)O)NC1=O [Compound 071] ([Mpa][Tle]YHT[Trp(7-aza)][Nva]EYYTC-NH2; linker 1-12 via mXylylene)
IC50 (PCSK9): 1 to 100 nM | IC50 [1]: 100 to 1000 nM

CCC[C@@H]1NC(=O)[C@H](Cc2c[nH]c3ncccc23)NC(=O)[C@H]([C@@H](C)O)NC(=O)[C@H](Cc2cnc[nH]2)NC(=O)[C@H](Cc2ccc(O)cc2)NC(=O)[C@H](Cc2ccc(CN)cc2)NC(=O)CCSCc2cccc(c2)CSC[C@@H](C(N)=O)NC(=O)[C@H]([C@@H](C)O)NC(=O)[C@H](CCC)NC(=O)[C@H](Cc2ccc(O)cc2)NC(=O)[C@H](CCC(=O)O)NC1=O [Compound 086] ([Mpa][Phe(4-CH2NH2)]YHT[Trp(7-aza)][Nva]EY[Nva]TC-NH2; linker 1-12 via mXylylene)
IC50 (PCSK9): 100 to 1000 nM | IC50 [1]: 100 to 1000 nM

CCC[C@@H]1NC(=O)[C@H](Cc2c[nH]c3ncccc23)NC(=O)[C@H]([C@@H](C)O)NC(=O)[C@H](CNC(=N)N)NC(=O)[C@H](Cc2ccc(O)cc2)NC(=O)[C@H](Cc2cc3cc(F)ccc3[nH]2)NC(=O)[C@@H](NC(=O)[C@H](Cc2ccc(NC(=N)N)cc2)NC(C)=O)CSCc2cccc(c2)CSC[C@@H](C(N)=O)NC(=O)[C@H]([C@@H](C)O)NC(=O)[C@H](CCC)NC(=O)[C@H](Cc2ccc(O)cc2)NC(=O)[C@H](CCC(=O)O)NC1=O [Compound 091] (Ac-[Phe(4-guanidino)]C[X4]Y[Agp]T[Trp(7-aza)][Nva]EY[Nva]TC-NH2; linker 2-13 via mXylylene)
IC50 (PCSK9): 1 to 100 nM | IC50 [1]: 100 to 1000 nM

CCC[C@@H]1NC(=O)[C@H](Cc2c[nH]c3ncccc23)NC(=O)[C@H]([C@@H](C)O)NC(=O)[C@H](Cc2cnc[nH]2)NC(=O)[C@H](Cc2ccc(O)cc2)NC(=O)[C@H]([C@@H](C)c2c[nH]c3ccccc23)NC(=O)CCSCc2cccc(c2)CSC[C@@H](C(N)=O)NC(=O)[C@H]([C@@H](C)O)NC(=O)[C@H](CCC)NC(=O)[C@H](Cc2ccc(O)cc2)NC(=O)[C@H](CCC(=O)O)NC1=O [Compound 097] ([Mpa][Trp(βS-Me)]YHT[Trp(7-aza)][Nva]EY[Nva]TC-NH2; linker 1-12 via mXylylene)
IC50 (PCSK9): 1 to 100 nM | IC50 [1]: 1 to 100 nM

CCC[C@@H]1NC(=O)[C@H](Cc2c[nH]c3ncccc23)NC(=O)[C@H]([C@@H](C)O)NC(=O)[C@H](Cc2cnc[nH]2)NC(=O)[C@H](Cc2ccc(O)cc2)NC(=O)[C@H](C(C)(C)C)NC(=O)[C@@H](NC(=O)[C@H](Cc2ccc(CNC(=N)N)cc2)NC(C)=O)CSCc2cccc(c2)CSC[C@@H](C(N)=O)NC(=O)[C@H]([C@@H](C)O)NC(=O)[C@H](CCC)NC(=O)[C@H](Cc2ccc(O)cc2)NC(=O)[C@H](CCC(=O)O)NC1=O [Compound 098] (Ac-[X3]C[Tle]YHT[Trp(7-aza)][Nva]EY[Nva]TC-NH2; linker 2-13 via mXylylene)
IC50 (PCSK9): 100 to 1000 nM | IC50 [1]: 21000 to 50000 nM

CCC[C@@H]1NC(=O)[C@H](Cc2ccc(O)cc2)NC(=O)[C@H](C)NC(=O)[C@]2(C)CC/C=C\CCCC[C@](C)(NC1=O)C(=O)N[C@H](C(N)=O)CCCCNC(=O)CCC[C@H](NC(C)=O)C(=O)N[C@@H](C(C)(C)C)C(=O)N[C@@H](Cc1ccc(O)cc1)C(=O)N1CCC[C@H]1C(=O)N[C@@H]([C@@H](C)O)C(=O)N[C@@H](Cc1c[nH]c3ncccc13)C(=O)N2 [Compound 104] (Ac-[Aad][Tle]YPT[Trp(7-aza)][αMeNva(5-ylidene)]AY[Nva][X1]K-NH2; lactam 1-12; staple (Z) 7-11)
IC50 (PCSK9): 100 to 1000 nM | IC50 [1]: 1000 to 12100 nM

CCC[C@@H]1NC(=O)[C@H](Cc2c[nH]c3ncccc23)NC(=O)[C@H]([C@@H](C)O)NC(=O)[C@@H]2CCCCNC(=O)CC[C@H](NC1=O)C(=O)N[C@@H](Cc1ccc(O)cc1)C(=O)N[C@@H](C1CCCCC1)C(=O)N[C@@H]([C@@H](C)O)C(=O)N[C@@H](C(N)=O)CSCc1cccc(c1)CSCCC(=O)N[C@@H](C(C)(C)C)C(=O)N[C@@H](Cc1ccc(O)cc1)C(=O)N2 [Compound 107] ([Mpa][Tle]YKT[Trp(7-aza)][Nva]EY[Chg]T[dC]-NH2; linker 1-12 via mXylylene; lactam 4-8)
IC50 (PCSK9): 1 to 100 nM | IC50 [1]: 1 to 100 nM
